Assay results reported in patent publication US4587046A, “Drug-carrier conjugates” (The Regents of the University of California, priority 1982, dated 1986).
Square brackets hold non-standard residues; d marks the D form. Peptide text beside a SMILES is read from it. * marks the point of attachment. Phe(4-NH2) = Nc1ccc(C[C@H](N)C(=O)O)cc1; X1 = CC(CCCCC(=O)*)NCC(O)c1ccc(O)c(O)c1; Nva(5-OH) = N[C@@H](CCCO)C(=O)O; Boc = CC(C)(C)OC(=O)*

Tests used:
[1] = tested on: S49 cells; test: wild type S49 cell assay, cyclic AMP accumulation (relative beta adrenergic activity); assay type: cell-based; details: in vitro, ratio of KA for isoproterenol to KA for the compound, isoproterenol = 1
Method: The biological activity of the conjugates of the invention was tested in a wild type S49 cell assay. The assay is indicative of the relative beta adrenergic activity of the compound. The activity of each conjugate tested was compared to the activity of isoproterenol as the base standard. In the test, S49 cells were centrifuged and then resuspended (2 to 2.5×10^6 cells per ml.) in Dulbecco's modified Eagle medium (13.3 g per liter) and 20 mM Hepes (pH 7.4)+0.1% bovine serum albumin. The S49 suspensions were incubated at 37° C. for 10 minutes without the conjugate and then added to tubes with or without the conjugate for an additional 6 minutes. The reaction was stopped by cooling on ice. Incubation without the conjugates present established a base line. After isolation of a pellet of cells by centrifugation they were resuspended and boiled. Aliquots were then used for the competitive binding assay for cyclic AMP described by Gilman in the Procedings of the National Academy of Sciences USA 67, 305-312 (1970). Results were plotted as pmol cyclic AMP accumulated per 10^7 cells in excess of base line as a function of the log of the concentration of the analog. | ^a Biological activity was measured by cyclic AMP accumulation in S49 | cells. Relative activity is expressed as the ration of KA for | isoproterenol to KA for the compound.

[2] = tested on: rat blood pressure; test: in vivo reduction of rat blood pressure after injection into the femoral vein; parameters: species or system male Sprague-Dawley rats; details: 0.001 to 10.0 mg/kg, ratio of molar ED50 of isoproterenol to molar ED50 of the compound (dose that reduces rat blood pressure by 50%)
Method: In addition to the in vitro testing set forth above, in vivo testing was also conducted on a number of conjugates of the invention. The tests were conducted by injecting various doses of the test conjugate into the femoral vein of rats and thereafter recording changes in heart rate, arterial pulse pressure and mean pressure.
More specifically, male Sprague-Dawley rats weighing 280-350 g had their femoral arteries connected to a Statham P-23 pressure transducer, which was in turn recorded on a Beckman Dynograph model R511A. Venus cannula were inserted in the femoral veins. Two syringes were attached to the veins via a 3-way stopcock. One syringe contained heparinized saline (40 units/ml) while the other contained the conjugate to be tested.
All cannulas were periodically flushed with the heparinized saline to prevent clots from forming. After the blood pressure and heart rate had stabilized, a volume of heparinized saline corresponding to the volume of drug conjugate the animal was to receive, was injected, and the response observed. Then various doses of the test drug conjugate were injected with a minimum interval of ten minutes between doses. The dose range was from 0.001 to 10.0 mg/kg, with the doses always being administered in increasing amounts. From the drug injections, a dose-response curve was obtained. The response curves were then compared to the animals' response to isoproterenol administered under the same conditions. Table 3 below presents the results of these in vivo tests:
^a Biological activity in vivo was measured as the effective dose tha
reduces rat blood pressure by 50%. Relative activity is expressed as the
ratio of the molar ED50 of isoproterenol to the molar ED50 of […]

SMILES	Activity relative to isoproterenol [1]	In Vivo Activity Relative to Isoproterenol [2]
CNC(=O)CNC(=O)[C@H](CCCO)NC(=O)[C@H](CCCO)NC(=O)[C@H](CCCO)NC(=O)[C@H](Cc1ccc(NC(=O)CCCCC(C)NCC(O)c2ccc(O)c(O)c2)cc1)NC(=O)OC(C)(C)C (some centres unmarked) [P] (Boc-[Phe(4-NH2)](X1)[Nva(5-OH)][Nva(5-OH)][Nva(5-OH)]G-NHMe)	7.9 × 10^-1	.59
CNC(=O)CC[C@H](NC(C)=O)C(=O)N[C@@H](Cc1ccc(NC(=O)CCCCC(C)NCC(O)c2ccc(O)c(O)c2)cc1)C(=O)N[C@@H](CCC(=O)NC)C(=O)NC (stereo partly drawn) [M, N^α -Acetyl-N'-Methyl-L-Glutaminyl-p-[6-(β-3',4'-Dihydroxyphenyl-β-Hydroxy)-Ethylamino-n-Heptanoylamino]-L-Phenylalanyl-N'-Methyl-L-Glutaminyl-Methylamide]	2.3 × 10^-5	
CNC(=O)CNC(=O)[C@@H](N)Cc1ccc(NC(=O)CCCCC(C)NCC(O)c2ccc(O)c(O)c2)cc1 (some centres unmarked) [F]	1.3 × 10^-4	
CNC(=O)CNC(=O)[C@H](Cc1ccc(NC(=O)CCCCC(C)NCC(O)c2ccc(O)c(O)c2)cc1)NC(=O)OC(C)(C)C (stereo partly drawn) [E, N^α -t-Butyloxycarbonyl-p-[6-(β-3',4'-Dihydroxyphenyl-β-Hydroxy)-Ethylamino-n-Heptanoylamino]-L-Phenylalanyl-Glycyl-Methylamide]	4.1	3.74
CNC(=O)CC[C@H](NC(C)=O)C(=O)N[C@@H](Cc1ccc(NC(=O)CCCCCC(C)NCC(O)c2ccc(O)c(O)c2)cc1)C(=O)N[C@@H](CCC(=O)NC)C(=O)NC (some centres unmarked) [N]	8.6 × 10^-6	
CNC(=O)[C@H](Cc1ccc(NC(=O)CCCCC(C)NCC(O)c2ccc(O)c(O)c2)cc1)NC(=O)CNC(=O)OC(C)(C)C (some centres unmarked) [G]	6.8 × 10^-1	.92
CNC(=O)CC[C@H](NC(C)=O)C(=O)N[C@@H](Cc1ccc(NC(=O)CCCCC(C)NCC(O)c2ccc(O)c(O)c2)cc1)C(=O)NCC(=O)NC (some centres unmarked) [H]	3.7 × 10^-6	1.77
CNC(=O)CNC(=O)[C@H](Cc1ccc(NC(=O)CCCCC(C)NCC(O)c2ccc(O)c(O)c2)cc1)NC(=O)[C@H](CCCNC(N)=O)NC(=O)OC(C)(C)C (some centres unmarked) [K]	3.8 × 10^-5	.22
CC(=O)N[C@@H](Cc1ccc(NC(=O)CCCCC(C)NCC(O)c2ccc(O)c(O)c2)cc1)C(=O)NCCCO (some centres unmarked) [A]	9.0 × 10^-2	
CNC(=O)CNC(=O)[C@H](Cc1ccc(NC(=O)CCCCC(C)NCC(O)c2ccc(O)c(O)c2)cc1)NC(C)=O (stereo partly drawn) [D, N^α -Acetyl-p-[6-(β-3',4-Dihydroxyphenyl-β-Hydroxy)-Ethylamino-n-Heptanoylamino]-L-Phenylalanyl-Glycyl-Methylamide]	1.1	
CC(=O)N[C@H](Cc1ccc(NC(=O)CCCCC(C)NCC(O)c2ccc(O)c(O)c2)cc1)C(=O)NCCCO (some centres unmarked) [B]	4.0 × 10^-1	
CNC(=O)CNC(=O)[C@H](Cc1ccc(NC(=O)CCCCC(C)NCC(O)c2ccc(O)c(O)c2)cc1)NC(=O)[C@H](CCCO)NC(=O)[C@H](CCCO)NC(=O)[C@H](CCCO)NC(=O)OC(C)(C)C (some centres unmarked) [O] (Boc-[Nva(5-OH)][Nva(5-OH)][Nva(5-OH)][Phe(4-NH2)](X1)G-NHMe)	1.0	.76
CNC(=O)CNC(=O)[C@H](Cc1ccc(NC(=O)CCCCC(C)NCC(O)c2ccc(O)c(O)c2)cc1)NC(=O)[C@H](CCCO)NC(C)=O (some centres unmarked) [I]	8.0 × 10^-5	1.48
CNC(=O)CNC(=O)[C@H](Cc1ccc(NC(=O)CCCCC(C)NCC(O)c2ccc(O)c(O)c2)cc1)NC(=O)[C@H](CCCNC(N)=O)NC(C)=O (some centres unmarked) [J]		.79
CC(=O)N[C@@H](Cc1ccc(NC(=O)CCCCC(C)NCC(O)c2ccc(O)c(O)c2)cc1)C(=O)NCC(=O)O (some centres unmarked) [C]	4.4 × 10^-1	
CNC(=O)CC[C@H](NC(C)=O)C(=O)N[C@@H](Cc1ccc(NC(=O)CCCC(C)NCC(O)c2ccc(O)c(O)c2)cc1)C(=O)N[C@@H](CCC(=O)NC)C(=O)NC (some centres unmarked) [L]	4.5 × 10^-6	
